Assay results taken from patent US20120129878A1, “TABLET” (Takeda Pharmaceutical Company Limited, priority 2009, published 2012).

Biological target: dipeptidyl peptidase (DPP-IV) (Homo sapiens, UniProt P27487)
Test: DPP-IV inhibitory activity (statement only)
Type: biochemical
Conditions: metabolite of compound (A); statement without data

Chain of dipeptidyl peptidase (DPP-IV) (P27487 whole entry, species assumed): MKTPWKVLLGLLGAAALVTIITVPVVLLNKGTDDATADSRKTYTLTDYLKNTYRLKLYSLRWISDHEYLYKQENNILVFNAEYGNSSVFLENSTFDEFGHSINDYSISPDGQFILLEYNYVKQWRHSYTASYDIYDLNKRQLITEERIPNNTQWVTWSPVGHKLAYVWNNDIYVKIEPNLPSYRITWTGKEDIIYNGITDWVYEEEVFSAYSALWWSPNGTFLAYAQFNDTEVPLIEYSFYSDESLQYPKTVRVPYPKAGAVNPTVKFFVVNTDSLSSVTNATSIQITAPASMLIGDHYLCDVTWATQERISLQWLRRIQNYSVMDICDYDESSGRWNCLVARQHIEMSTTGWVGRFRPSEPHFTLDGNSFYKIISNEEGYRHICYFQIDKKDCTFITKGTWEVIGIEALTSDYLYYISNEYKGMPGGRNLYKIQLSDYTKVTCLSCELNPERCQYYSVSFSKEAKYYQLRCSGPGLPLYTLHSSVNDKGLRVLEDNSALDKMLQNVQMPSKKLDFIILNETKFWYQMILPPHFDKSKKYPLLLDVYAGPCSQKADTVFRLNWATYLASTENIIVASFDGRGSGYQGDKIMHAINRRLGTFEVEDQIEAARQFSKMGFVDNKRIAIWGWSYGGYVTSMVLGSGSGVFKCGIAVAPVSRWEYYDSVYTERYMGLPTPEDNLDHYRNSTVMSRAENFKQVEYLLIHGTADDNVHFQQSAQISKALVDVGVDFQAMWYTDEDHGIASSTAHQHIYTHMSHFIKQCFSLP

DPP-IV inhibitory activity: has a DPP-IV inhibitory activity
SMILES: N#Cc1ccc(F)cc1Cn1c(N2CCC[C@@H](N)C2)cc(=O)[nH]c1=O
